Where no end group is shown, it is not given here.
What was measured:
MAVS proteins = target: T1, MAVS proteins (Mus musculus, UniProt Q8VCF0); assay: MAVS aggregation induced by LPS and nigericin, Western blot of isolated mitochondria; type: cell-based; details: 5 mM peptide; IC21; 1 mg/ml LPS 4 hours then 5 mM nigericin 1 hour; vs control group treated with endotoxin and nigericin
T1 construct: mitochondria in IC21 were isolated with a hypotonic buffer and centrifugation; endogenous in cells; host or cells: IC21 mouse peritoneal macrophage cell line
T1 sequence (Q8VCF0 1-503): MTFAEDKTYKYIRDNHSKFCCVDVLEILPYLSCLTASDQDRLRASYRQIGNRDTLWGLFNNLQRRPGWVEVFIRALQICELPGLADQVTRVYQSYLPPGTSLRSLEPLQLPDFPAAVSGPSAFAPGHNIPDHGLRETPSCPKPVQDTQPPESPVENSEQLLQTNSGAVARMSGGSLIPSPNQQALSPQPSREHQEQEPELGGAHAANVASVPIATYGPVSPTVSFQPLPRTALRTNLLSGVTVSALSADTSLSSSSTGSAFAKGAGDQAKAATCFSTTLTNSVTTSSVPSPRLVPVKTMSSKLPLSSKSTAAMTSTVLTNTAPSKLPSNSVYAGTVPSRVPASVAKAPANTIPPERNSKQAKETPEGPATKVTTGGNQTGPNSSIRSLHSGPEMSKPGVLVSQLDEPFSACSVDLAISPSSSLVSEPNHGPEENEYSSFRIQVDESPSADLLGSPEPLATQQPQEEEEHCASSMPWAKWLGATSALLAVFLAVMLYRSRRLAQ
Experimental: Specifically, the aggregation of MAVS proteins was induced by stimulation with pathogen-associated molecular patterns (PAMPs), and endotoxin (lipopolysaccharide (LPS)) and nigericin were used as the PAMPs. First, 5 mM MQP-15, MQP-23, MQP-31 or MQP-37 was added to a serum-free cell culture medium containing 1 mg/ml LPS, followed by treatment with 1×10^5 cells of a mouse peritoneal macrophage cell line (IC21) for 4 hours. Then, 5 mM MQP-15, MQP-23, MQP-31 or MQP-37 was added to a serum-free cell culture medium containing 5 mM nigericin, followed by treatment with IC21 for additional 1 hour. Thereafter, mitochondria in IC21 were isolated with a hypotonic buffer and centrifugation. Then, in order to check the result of MAVS aggregation by the Western blot, a sample was prepared using a semi-denaturing detergent in the isolated mitochondria and electrophoresis was performed. After the electrophoretically isolated mitochondrial protein was transferred to a polyvinylidene difluoride (PVDF) membrane, a primary antibody recognizing the MAVS proteins and a secondary antibody recognizing the primary antibody were additionally treated. Thereafter, the aggregation of MAVS proteins was checked by inducing a chemiluminescence reaction of the secondary antibody.

interferon-beta (IFN-b) = assay: polyIC-induced IFN-b expression in MLE-12 cells, ELISA; type: cell-based, mouse; details: 5 mg/ml polyIC, 16 hours; for expression level of IFN-b: vs control group treated only with polyIC
Experimental: Specifically, polyinosinic:polycytidylic acid (polyIC), which is a synthetic ribonucleic acid known to be associated with viral infection among the PAMPs and promotes the production of interferon and is analogous to an RNA virus gene, was used to induce a viral infection response. First, a serum-free cell culture medium containing 5 mg/ml polyIC and MQP-15, MQP-23, MQP-31, MQP-37, MQP-Y9 or MQP-T234 was treated with 1×10^5 cells of a mouse lung epithelial cell line (MLE-12) for 16 hours. Then, the supernatant was obtained and the expression level of interferon-beta (IFN-b) was checked by enzyme-linked immunosorbent assay (ELISA).
(§1) Specifically, LPS and ATP were used to induce an inflammasome response caused by bacterial infection, and polyIC was used to induce an inflammatory response caused by viral infection. First, 1 mg/ml LPS and 5 mM or 1 mM novel alanine-substituted peptide were mixed in a serum-free cell culture medium, followed by treatment with 1×10^5 cells of IC21. Thereafter, 5 mM ATP and 5 mM or 1 mM novel alanine-substituted peptide were mixed in a serum-free cell culture medium and treated for 30 minutes. Then, the supernatant was obtained and the expression level of IL-1b was checked by ELISA. Also, 5 mg/ml polyIC and 25 mM or 2 mM novel alanine-substituted peptide were mixed in a serum-free cell culture medium, followed by treatment with 1×10^5 cells of MLE-12 for 16 hours. Thereafter, the supernatant was obtained and the expression level of IFN-b was checked by ELISA.
as §1, with “2” for “5 mM or 1”, “amino acid-substituted” for “alanine-substituted”, “and” for “and 25 mM or”
Specifically, polyIC was used to induce a viral infection response. First, a serum-free cell culture medium containing 5 mg/ml polyIC and MQP-37, MQP-37A6, MQP-37D6W, MQP-37D6Y, MQP-37D6H, MQP-37D6K, MQP-37D6R or MQP-37D6V was treated with 1×10^5 cells of MLE-12 for 16 hours. Then, the supernatant was obtained and the expression level of IFN-b was checked by ELISA.

IL-1b = assay: LPS/ATP-induced IL-1b expression (inflammasome response) in IC21, ELISA; type: cell-based, mouse; details: 1 mg/ml LPS, 5 mM ATP 30 minutes, 2 mM peptide
Experimental: as §1
as §1, with “2” for “5 mM or 1”, “amino acid-substituted” for “alanine-substituted”, “and” for “and 25 mM or”
Specifically, LPS was used to induce an inflammatory response caused by bacterial infection. First, MQP-37 or MQP-37A6 was added to a serum-free cell culture medium containing 0.1 mg/ml LPS, followed by treatment with 1×10^5 cells of IC21 for 6 hours. Then, the supernatant was obtained and the expression level of IL-6 was checked by ELISA. Also, the Western blot was performed and the phosphorylation of NF-κB was checked to identify the mechanism of immune activation response. Thereafter, LPS and ATP were used to induce an inflammasome response caused by bacterial infection, LPS and ATP were used. First, 1 mg/ml LPS and L- or D-MQP-37 and MQP-37A6 were mixed in a serum-free cell culture medium and treated with 1×10^5 cells of IC21. Then, 5 mM ATP and MQP-37 or MQP-37A6 were mixed in a serum-free cell culture medium and treated for 30 minutes. Thereafter, the supernatant was obtained and the expression level of IL-1b was checked by ELISA.

IC21 = assay: XTT cytotoxicity test; type: cell-based, mouse; details: at a concentration of 10 mM; FIGS. 4-B and 4-C
Experimental: Specifically, in order to check the cytotoxicity of the peptides, the XTT test method for measuring the activity of mitochondria in cells was used. First, […] 16 hours, followed by XTT assay for 1 hour to measure the amount of water-soluble formazan produced by reduction by dehydrogenase in the mitochondria.

MLE-12 = assay: Cytotoxicity at maximum concentration (Example 13); type: cell-based, mouse; details: at the maximum concentration in the experiment; FIG. 13B-F
[1] = tested on: interleukin-1beta (IL-1b); assay: IL-1b expression induced by LPS, OMV or LPS and nigericin in IC21, ELISA; type: cell-based, mouse; details: 1 mg/ml LPS 4 hours, 5 mM nigericin 1 hour, FIG. 5B-D
Experimental: Specifically, LPS (lipopolysaccharide) and Gram-negative bacteria-derived outer membrane vesicle (OMV) were used as endotoxins to induce the inflammasome response caused by bacterial infection. First, 5 mM MQP-15, MQP-23, MQP-31 or MQP-37 was added to a serum-free cell culture medium containing 0.1 mg/ml LPS or OMV, followed by treatment with 1×10^5 cells of IC21 for 6 hours. Also, MQP-37 or MQP-Y9 was added to a serum-free cell culture medium containing 1 mg/ml LPS and 5 mM nigericin, followed by treatment for 5 hours (LPS treatment-4 hours; nigericin treatment-1 hour). Then, the supernatant was obtained and the expression level of interleukin-1beta (IL-1b) was checked by ELISA, and the cells were lysed and subjected to SDS-PAGE, and the inflammasome factors were analyzed by the Western blot.

interleukin-6 (IL-6) = assay: LPS-induced IL-6 expression in IC21, ELISA; type: cell-based, mouse; details: 0.1 mg/ml LPS, 6 hours
Experimental: Specifically, LPS was used to induce an inflammatory response caused by bacterial infection. First, MQP-15, MQP-23, MQP-31, MQP-37 or MQP-Y9 was added to a serum-free cell culture medium containing 0.1 mg/ml LPS, followed by treatment with 1×10^5 cells of IC21 for 6 hours. Then, the supernatant was obtained and the expression levels of interleukin-6 (IL-6) and a tumor necrosis factor-alpha (TNF-a) were checked by ELISA.

NF-κB = assay: LPS-induced phosphorylation of NF-kB in IC21, Western blot; type: cell-based, mouse; details: 5 mM peptide, 10 ng/ml endotoxin, 6 hours, vs control treated with LPS only
Excerpt: Specifically, LPS was used to induce an immune activation response caused by bacterial infection, and the phosphorylation of nuclear factor kappa-light-chain-enhancer of activated B cells (NF-kB) was checked to identify the mechanism of the immune activation response. […] Thereafter, the cells were washed with a PBS solution and then lysed with a RIPA buffer, and the supernatant was separated. In order to measure the change in the phosphorylation amount of NF-κB protein with the separated supernatant, the Western blot was performed as in Example 2.

MQP-15: novel peptide complementary to a MAVS domain sequence (hydropathic complementarity); sequence not tied to the code in the text (LKSLKTLH; MQP-15)
aggregation of MAVS proteins (MAVS proteins): decreased | expression level of IFN-b (interferon-beta (IFN-b)): decreased

MQP-37D6H: MQP-37 whose sixth amino acid (aspartic acid) is substituted with histidine (SLVLAHARW; MQP-37D6H)
inflammatory response caused by viral infection (IFN-b) (interferon-beta (IFN-b); FIGS. 13A-C and 13A-D): inhibited the inflammatory response caused by viral infection in a concentration-dependent manner | inflammasome response caused by bacterial infection (IL-1b), sixth amino acid of MQP-37 substituted (IL-1b; FIG. 10A-B): effectively

MQP-37D6W: MQP-37 whose sixth amino acid (aspartic acid) is substituted with tryptophan (SLVLAWARW; MQP-37D6W)
inflammatory response caused by viral infection (IFN-b), sixth amino acid of MQP-37 substituted, compared to the original peptide (interferon-beta (IFN-b); 2 mM peptide, FIG. 10B-C): effectively inhibited even at a low peptide concentration | inhibiting the inflammatory response caused by viral infection (IFN-b), compared to MQP-37 and MQP-37A6 (interferon-beta (IFN-b); concentration-dependent, FIGS. 13A-A and 13A-B): outstanding effect

SLVLADARW [MQP-37]
cytotoxicity (XTT) (IC21): did not exhibit any cytotoxicity

MQP-23: novel peptide complementary to a MAVS domain sequence (hydropathic complementarity); sequence not tied to the code in the text (LQHLEDGM; MQP-23)
aggregation of MAVS proteins (MAVS proteins): decreased | expression level of IFN-b (interferon-beta (IFN-b)): decreased

SLVLAYARW [MQP-37D6Y]
cytotoxicity (MLE-12): did not show cytotoxicity

MQP-T234: novel anti-inflammatory peptide prepared in Example 1 (KVGDRARWGSRS; MQP-T234)
expression level of IFN-b (interferon-beta (IFN-b)): decreased

MQP-31: novel peptide complementary to a MAVS domain sequence (hydropathic complementarity); sequence not tied to the code in the text (DGTECR; MQP-31)
aggregation of MAVS proteins (MAVS proteins): decreased | expression level of IFN-b (interferon-beta (IFN-b)): decreased

MQP-37A1: prepared by substituting the first amino acid of MQP-37A6 with alanine (ALVLADARW; MQP-37A1)
inflammasome response caused by bacterial infection (IL-1b), first amino acid substituted (IL-1b; FIG. 10A-A): most effectively

KRLLFWIFIK [MQP-Y9]
expression level of IFN-b with various concentrations of peptide (interferon-beta (IFN-b)): decreased in a concentration-dependent manner | expression level of IFN-b (interferon-beta (IFN-b)): decreased | cytotoxicity (XTT) (IC21): did not exhibit any cytotoxicity | production of IL-1b after LPS and nigericin treatment [1]: inhibited in an MQP-Y9 concentration-dependent manner | expression level of IL-6 after LPS treatment with various concentrations of peptide (interleukin-6 (IL-6)): decreased in a concentration-dependent manner | phosphorylation amount of NF-κB (NF-κB): significantly decreased
